Publication PMC10491595, “Activation of the integrated stress response by inhibitors of its kinases” (Nature Communications, 2023)

Columns and labels:
GCN2 [1] = target: T1, GCN2 (Homo sapiens, UniProt Q9P2K8); assay: in vitro kinase assay; type: biochemical
T1 construct: gene EIF2AK4; GST-GCN2 fragment (192-1024)
T1 sequence (Q9P2K8 192-1024): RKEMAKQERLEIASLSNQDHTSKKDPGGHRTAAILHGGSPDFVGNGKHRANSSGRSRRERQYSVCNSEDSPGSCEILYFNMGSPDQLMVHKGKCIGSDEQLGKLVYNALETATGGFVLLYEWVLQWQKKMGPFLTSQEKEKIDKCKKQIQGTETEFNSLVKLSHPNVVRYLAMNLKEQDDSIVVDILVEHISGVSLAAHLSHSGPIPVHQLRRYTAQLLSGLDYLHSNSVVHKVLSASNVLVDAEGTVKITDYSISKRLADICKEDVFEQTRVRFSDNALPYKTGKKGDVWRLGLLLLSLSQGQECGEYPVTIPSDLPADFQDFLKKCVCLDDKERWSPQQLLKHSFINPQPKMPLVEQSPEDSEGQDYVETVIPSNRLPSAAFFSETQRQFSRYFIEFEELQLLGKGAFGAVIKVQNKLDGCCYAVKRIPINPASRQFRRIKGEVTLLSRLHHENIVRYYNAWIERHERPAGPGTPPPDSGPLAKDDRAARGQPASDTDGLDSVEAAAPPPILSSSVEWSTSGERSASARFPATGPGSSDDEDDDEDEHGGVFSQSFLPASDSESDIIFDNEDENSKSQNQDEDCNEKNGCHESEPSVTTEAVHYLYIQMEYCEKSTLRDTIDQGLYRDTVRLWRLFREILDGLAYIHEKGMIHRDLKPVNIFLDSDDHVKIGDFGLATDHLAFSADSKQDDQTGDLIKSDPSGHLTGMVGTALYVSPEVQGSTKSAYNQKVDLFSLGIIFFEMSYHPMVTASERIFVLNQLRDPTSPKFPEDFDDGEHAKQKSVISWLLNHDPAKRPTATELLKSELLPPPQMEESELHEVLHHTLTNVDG

PERK = target: T2, PERK (Homo sapiens, UniProt Q9NZJ5); assay: PERK activation (mobility shift) immunoblot in tunicamycin-treated HeLa cells; type: cell-based
T2 construct: gene EIF2AK3
T2 sequence (Q9NZJ5 30-1116): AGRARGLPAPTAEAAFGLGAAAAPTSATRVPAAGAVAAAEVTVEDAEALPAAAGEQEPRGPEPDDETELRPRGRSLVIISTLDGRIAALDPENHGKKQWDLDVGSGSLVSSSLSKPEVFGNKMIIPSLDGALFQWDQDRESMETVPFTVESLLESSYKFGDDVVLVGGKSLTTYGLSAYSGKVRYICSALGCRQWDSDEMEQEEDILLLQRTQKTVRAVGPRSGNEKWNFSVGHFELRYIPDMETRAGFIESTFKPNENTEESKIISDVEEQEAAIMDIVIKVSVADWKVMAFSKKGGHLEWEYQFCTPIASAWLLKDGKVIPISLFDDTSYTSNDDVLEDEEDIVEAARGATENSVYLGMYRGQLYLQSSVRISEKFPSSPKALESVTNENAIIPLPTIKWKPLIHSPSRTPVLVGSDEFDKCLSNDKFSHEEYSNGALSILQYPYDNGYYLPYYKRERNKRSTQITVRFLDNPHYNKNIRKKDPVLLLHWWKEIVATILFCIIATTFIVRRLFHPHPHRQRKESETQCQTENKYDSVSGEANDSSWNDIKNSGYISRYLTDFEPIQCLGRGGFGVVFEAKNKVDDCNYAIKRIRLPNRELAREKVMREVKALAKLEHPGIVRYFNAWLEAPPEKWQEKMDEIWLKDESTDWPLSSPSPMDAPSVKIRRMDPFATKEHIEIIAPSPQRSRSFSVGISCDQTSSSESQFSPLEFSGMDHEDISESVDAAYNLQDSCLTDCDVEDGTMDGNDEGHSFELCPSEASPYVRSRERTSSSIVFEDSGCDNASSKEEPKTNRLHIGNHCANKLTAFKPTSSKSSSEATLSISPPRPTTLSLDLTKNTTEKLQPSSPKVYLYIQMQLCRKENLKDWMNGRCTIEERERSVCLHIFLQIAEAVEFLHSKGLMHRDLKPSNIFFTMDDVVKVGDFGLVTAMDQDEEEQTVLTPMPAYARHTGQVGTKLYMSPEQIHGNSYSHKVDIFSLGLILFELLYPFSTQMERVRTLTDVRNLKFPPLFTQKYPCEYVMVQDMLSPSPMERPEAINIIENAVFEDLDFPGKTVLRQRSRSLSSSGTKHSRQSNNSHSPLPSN

GCN2 [2] = target: T1, GCN2; assay: in vitro kinase assay (Gaussian activation then inhibition); thermal shift of kinase domain; competition with A92; type: biochemical
[3] = target: the molecule itself; assay: SEC-MALS; GST-GCN2 fragment at ~1.7 mg/ml, incubated 20 min at 30 °C with DMSO or 50 µM GSK'157; Superdex 200 Increase 10/300 GL, 10 mM HEPES, 150 mM NaCl, 1 mM TCEP with DMSO or 50 µM GSK'157; same result in both conditions

`Nc1ncnc2c1ncn2[C@@H]1O[C@H](CO[P@](=O)(O)O[P@](=O)(O)NP(=O)(O)O)[C@@H](O)[C@H]1O` [AMP-PNP] was tested, and the “in vitro kinase assay” value (GCN2 [1]) was ~ 250 μM.

In the case of `Cc1cccc(CC(=O)N2CCc3c2ccc(-c2cn(C)c4ncnc(N)c24)c3F)n1` [GSK'157, GSK2656157], the “PERK activation (mobility shift) immunoblot in tunicamycin-treated HeLa cells” value (PERK) is reported as 0.02 to 10 µM and the “in vitro kinase assay (Gaussian activation then inhibition); thermal shift of ki” value (GCN2 [2]) is reported as ~ 5 μM.

B1: in-house recombinant GST-GCN2 fragment (192-1024) (domain or fragment, UniProt Q9P2K8 192-1024, looked up)
chain: RKEMAKQERLEIASLSNQDHTSKKDPGGHRTAAILHGGSPDFVGNGKHRANSSGRSRRERQYSVCNSEDSPGSCEILYFNMGSPDQLMVHKGKCIGSDEQLGKLVYNALETATGGFVLLYEWVLQWQKKMGPFLTSQEKEKIDKCKKQIQGTETEFNSLVKLSHPNVVRYLAMNLKEQDDSIVVDILVEHISGVSLAAHLSHSGPIPVHQLRRYTAQLLSGLDYLHSNSVVHKVLSASNVLVDAEGTVKITDYSISKRLADICKEDVFEQTRVRFSDNALPYKTGKKGDVWRLGLLLLSLSQGQECGEYPVTIPSDLPADFQDFLKKCVCLDDKERWSPQQLLKHSFINPQPKMPLVEQSPEDSEGQDYVETVIPSNRLPSAAFFSETQRQFSRYFIEFEELQLLGKGAFGAVIKVQNKLDGCCYAVKRIPINPASRQFRRIKGEVTLLSRLHHENIVRYYNAWIERHERPAGPGTPPPDSGPLAKDDRAARGQPASDTDGLDSVEAAAPPPILSSSVEWSTSGERSASARFPATGPGSSDDEDDDEDEHGGVFSQSFLPASDSESDIIFDNEDENSKSQNQDEDCNEKNGCHESEPSVTTEAVHYLYIQMEYCEKSTLRDTIDQGLYRDTVRLWRLFREILDGLAYIHEKGMIHRDLKPVNIFLDSDDHVKIGDFGLATDHLAFSADSKQDDQTGDLIKSDPSGHLTGMVGTALYVSPEVQGSTKSAYNQKVDLFSLGIIFFEMSYHPMVTASERIFVLNQLRDPTSPKFPEDFDDGEHAKQKSVISWLLNHDPAKRPTATELLKSELLPPPQMEESELHEVLHHTLTNVDG
notes: GCN2 (eIF2alpha kinase 4), residues 192-1024; MW of the GST fusion ~135 kDa as printed; eluted with glutathione, no cleavage of GST is described; GST itself is known to dimerise, so the dimer may owe to the tag (my surmise); also called recombinant GCN2; source: Sf9 (baculovirus), purified (Glutathione Sepharose 4B, Superdex 200); not shown: GST, N-terminal, kept
B1 was tested, and the “stoichiometry N” value [3] was 2.
